Series [1] addresses DOR. As to conditions: brain tissue membranes, included for comparison; read-out: Ki ± SEM DOR; cited from earlier work.
For series [2], the target named is MOR. As to conditions: brain tissue membranes, included for comparison; read-out: Ki ± SEM MOR; cited from earlier work.
Series [3] has as its target KOR. The note with it: brain tissue membranes, included for comparison; read-out: Ki ± SEM KOR; cited from earlier work.
Series [4] addresses T1, DOR (Mus musculus, UniProt P32300).
T1 construct: endogenous in cells; host or cells: NG108-15 neuroblastoma x glioma cells
Put plainly: [35S]GTP-γ-S binding assay, NG108-15 cells. The format is biochemical. As to conditions: for functional activity profile at DOR: in words; for agonist activity DOR EC50: stimulation of [35S]GTP-γ-S binding, no stim = no stimulation; for Emax: read-out: agonist activity DOR Emax.

In series [5] the target is T2, MOR (Homo sapiens, UniProt P35372).
T2 construct: expressed in transfected cells; host or cells: CHO (hMOR-CHO)
T2 sequence (P35372 whole entry): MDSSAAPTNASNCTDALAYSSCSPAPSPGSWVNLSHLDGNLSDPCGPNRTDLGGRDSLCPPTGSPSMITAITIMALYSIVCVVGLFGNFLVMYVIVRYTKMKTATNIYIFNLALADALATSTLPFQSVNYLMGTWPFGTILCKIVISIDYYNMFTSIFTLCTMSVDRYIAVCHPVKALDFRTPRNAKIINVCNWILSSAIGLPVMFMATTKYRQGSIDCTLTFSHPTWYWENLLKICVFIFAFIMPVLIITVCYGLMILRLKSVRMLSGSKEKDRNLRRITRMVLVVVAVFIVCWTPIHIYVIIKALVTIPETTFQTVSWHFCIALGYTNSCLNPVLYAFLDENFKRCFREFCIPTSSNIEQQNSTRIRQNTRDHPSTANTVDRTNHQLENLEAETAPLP
The experiment in a line: [35S]GTP-γ-S binding assay, hMOR-CHO cells. It counts as biochemical. As to conditions: for functional activity profile at MOR: in words; for Emax / agonist activity MOR Emax: normalized to stimulation by DAMGO; for Emax: read-out: agonist activity MOR Emax.

The target of series [6] is T3, KOR (Homo sapiens, UniProt P41145).
T3 construct: expressed in transfected cells; host or cells: CHO (hKOR-CHO)
T3 sequence (P41145 whole entry): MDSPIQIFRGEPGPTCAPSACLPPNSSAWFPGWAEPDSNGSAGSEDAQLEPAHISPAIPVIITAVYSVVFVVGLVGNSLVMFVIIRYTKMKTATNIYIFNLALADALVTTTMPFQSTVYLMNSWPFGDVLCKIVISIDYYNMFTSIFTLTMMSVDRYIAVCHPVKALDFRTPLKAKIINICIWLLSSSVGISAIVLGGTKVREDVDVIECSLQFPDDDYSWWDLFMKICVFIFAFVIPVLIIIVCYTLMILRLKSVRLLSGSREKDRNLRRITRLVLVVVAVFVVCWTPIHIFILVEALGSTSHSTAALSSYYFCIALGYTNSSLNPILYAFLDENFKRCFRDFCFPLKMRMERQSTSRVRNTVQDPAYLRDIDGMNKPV
Put plainly: [35S]GTP-γ-S binding assay, hKOR-CHO cells. The format is biochemical. As to conditions: for Emax: normalized to stimulation by standard agonist; for agonist activity KOR EC50: stimulation of [35S]GTP-γ-S binding, no stim = no stimulation.

Series [7] addresses T4, CHO cells co-expressing MOR and DOR (dimer cells) (UniProt P32300+P35372).
T4 construct: cMyc (N); expressed in transfected cells; host or cells: CHO (cMyc-mδ-HμCHO cells)
The experiment in a line: cell-based. It counts as cell-based, human μ / mouse δ. Further details: Emax: dose or concentration left out as unconfirmed. The note with it: for Emax: CHO, read-out: decrease of the Emax value for DAMGO-mediated inhibition of forskolin-stimulated cAMP.

The target in series [8] is T4, CHO cells co-expressing MOR and DOR (dimer cells). The format is cell-based, human μ / mouse δ.
For series [9], the system named is mice. The experiment in a line: 55° C. warm-water tail-withdrawal test. It counts as in vivo, mouse. The note with it: for Antinociceptive A50 Values: calculated at time of peak effect; for antinociceptive effect: in words; for effect of naloxone pretreatment on antinociceptive effect: naloxone 10 mg/kg ip, -10 min, icv test compound.
The target of series [10] is T5, DOR (Homo sapiens, UniProt P41143).
T5 construct: expressed in transfected cells; host or cells: CHO (hDOR-CHO)
T5 sequence (P41143 whole entry): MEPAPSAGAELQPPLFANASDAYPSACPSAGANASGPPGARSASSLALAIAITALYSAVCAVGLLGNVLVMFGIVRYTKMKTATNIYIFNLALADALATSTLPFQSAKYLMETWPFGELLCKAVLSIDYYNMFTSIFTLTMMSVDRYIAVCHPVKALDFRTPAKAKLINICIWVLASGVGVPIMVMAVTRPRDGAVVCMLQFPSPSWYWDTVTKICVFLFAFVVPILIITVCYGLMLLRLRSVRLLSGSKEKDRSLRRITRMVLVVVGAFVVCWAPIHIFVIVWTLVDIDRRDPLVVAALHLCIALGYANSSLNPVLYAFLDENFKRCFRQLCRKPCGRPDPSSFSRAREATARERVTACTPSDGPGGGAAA
Put plainly: Opioid binding assay, displacement of [3H]DADLE, hDOR-CHO cell membranes.

Series [11] addresses T2, MOR. Put plainly: Opioid binding assay, displacement of [3H]DAMGO, hMOR-CHO cell membranes. The note with it: for selectivity ratio MOR/DOR: ratio of Ki values, CHO membranes.
The target of series [12] is T3, KOR. Put plainly: biochemical. It counts as binding.
Series [13] relates to mice. The experiment in a line: Tolerance regimen, repeated icv injection, warm-water tail-withdrawal. The note with it: repeated injection paradigm.
The mark [14] stands for this setting: ratio of Ki values, CHO membranes.

Structures are written as SMILES. Where two headings read alike, the source gives them in different places.

T1 sequence (P32300 whole entry): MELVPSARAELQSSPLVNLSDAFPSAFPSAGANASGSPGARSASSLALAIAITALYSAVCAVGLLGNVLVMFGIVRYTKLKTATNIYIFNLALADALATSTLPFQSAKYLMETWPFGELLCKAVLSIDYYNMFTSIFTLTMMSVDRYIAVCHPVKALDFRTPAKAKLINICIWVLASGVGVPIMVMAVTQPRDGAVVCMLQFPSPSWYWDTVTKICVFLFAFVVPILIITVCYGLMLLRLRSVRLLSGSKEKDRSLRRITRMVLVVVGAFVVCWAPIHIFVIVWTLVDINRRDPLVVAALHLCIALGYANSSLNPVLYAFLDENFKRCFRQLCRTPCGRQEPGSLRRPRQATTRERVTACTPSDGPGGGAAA
T4 sequence (P35372 whole entry): as the sequence (P35372 whole entry) above
T4 sequence (P32300 whole entry): as the sequence (P32300 whole entry) above

Consider `CN1CCC23c4c5ccc(O)c4OC2c2ncc(-c4ccc(Cl)cc4)cc2CC3(O)C1C5` (stereo not shown) [Compound 9], for which the Ki on DOR [1] is 3.9 ± 0.2 nM; on MOR [2], 230 ± 10 nM; at KOR [3], 468 ± 17 nM.

With `Oc1ccc2c3c1OC1c4ncc(-c5ccc(Cl)cc5)cc4CC4(OCCCc5ccccc5)C(C2)N(CC2CC2)CCC314` (stereo not drawn) [Compound 17d, 5′-(4-Chlorophenyl)-17-(cyclopropylmethyl)-6,7-didehydro-4,5α-epoxy-3-hydroxy-14-(3-phenylpropoxy)pyrido[2′,3′:6,7]morphinan], on DOR [4], the “functional activity profile at DOR” value is recorded as “antagonists at DOR” and the “agonist activity DOR EC50” value is listed as “no stim”. On DOR [4] (shift in EC50 of standard agonist), the “antagonist activity DOR Ke” value was found to be 0.091 nM. On MOR [5], the “functional activity profile at MOR” value is given as “agonist profile at MOR” and the Emax is 72%. In addition, on KOR [6] (in words), the “functional activity profile at KOR” value was “devoid of agonist activity at KOR”. In [7], the “increase in the EC50 value for DAMGO-mediated inhibition of forskolin-stimulated cAMP accumulation (tolerance)” value is listed as “did not produce either tolerance” and the Emax stood at 40%. Besides, the “cAMP superactivation (forskolin-stimulated cAMP accumulation after chronic treatment)” value in series [8] (20 h treatment, washed, forskolin/IBMX 100 μM/500 μM) was “did not”. In addition, the “naloxone-induced cAMP overshoot” value in [8] (20 h treatment, washed, forskolin/IBMX plus 10 μM naloxone) is “did not”. For the same compound, in the series with mice [9] (icv), the “Antinociceptive A50 Values” is 0.35 nmol and the antinociceptive effect result is “full antinociceptive effects”. Also, the “effect of naloxone pretreatment on antinociceptive effect” value (“effect of naloxone pretreatment” below) in the series on mice [9] is given as “blocked by naloxone pretreatment”.

Take `COC12Cc3cc(-c4ccc(Cl)cc4)cnc3C3Oc4c(O)ccc5c4C31CCN(C)C2C5` (stereo not drawn) [Compound 17e, 5′-(4-Chlorophenyl)-6,7-didehydro-4,5α-epoxy-3-hydroxy-14-methoxy-17-methylpyrido[2′,3′:6,7]morphinan]: the melting point was 296 to 299 °C (dec.). Besides, the Ki at DOR [10] was found to be 1.63 ± 0.08 nM. Further, at MOR [11], the Ki stood at 7.89 ± 0.33 nM and the “selectivity ratio MOR/DOR” value was determined as 4.8. Further, the “selectivity ratio KOR/DOR” value at KOR [12] (setting [14]) came out at 17. Further, the Ki at KOR [12] (read-out: Ki ± SEM KOR) was 28 ± 1.59 nM. For the same compound, at DOR [4], the “functional activity profile at DOR” value is “antagonist activity at DOR” and the “agonist activity DOR EC50” value is on record as “no stim”. On MOR [5], it took 379 nM to reach a half-maximal effect (EC50) and the Emax was 118 ± 4%. Besides, on KOR [6], the EC50 is 633 ± 108 nM and the Emax worked out at 36 ± 2%. In addition, in the series with mice [9] (icv), the “analgesic potency, fold weaker than other tested ligands” value worked out at 6 fold; the “Antinociceptive A50 Values” is recorded as 1.44 nmol; the antinociceptive effect result was “full antinociceptive effects”. Besides, the “effect of naloxone pretreatment” value in the series on mice [9] is “blocked by naloxone pretreatment”.

On DOR [10], `CN1CCC23c4c5ccc(O)c4OC2c2ncc(-c4ccc(Cl)cc4)cc2CC3(OCCCc2ccccc2)C1C5` (stereo not drawn) [Compound 17h, 5′-(4-Chlorophenyl)-6,7-didehydro-4,5α-epoxy-3-hydroxy-17-methyl-14-(3-phenylpropoxy)pyrido[2′,3′:6,7]morphinan] came in with a Ki of 1.04 ± 0.08 nM. Moreover, on MOR [11], the Ki worked out at 0.54 ± 0.04 nM and the “selectivity ratio MOR/DOR” value was 0.52. Besides, the “selectivity ratio KOR/DOR” value at KOR [12] is on record as 1.5. Further, on KOR [12] (read-out: Ki ± SEM KOR), the Ki is 1.53 ± 0.1 nM. For the same compound, on DOR [4], the “functional activity profile at DOR” value was “weak to potent partial agonist activity at DOR” and the Emax was 85%. For the same compound, at MOR [5], the response was half-maximal at 2.15 nM (EC50) and the maximum response (Emax) stood at 125 ± 2%. In addition, the “agonist activity KOR EC50” value on KOR [6] is “no stim”. Also, in [7], the “increase in the EC50 value for DAMGO-mediated inhibition of forskolin-stimulated cAMP accumulation (tolerance)” value is reported as approximately 7 fold and the Emax stood at 20%. Further, in series [8], the “cAMP superactivation (forskolin-stimulated cAMP accumulation after chronic treatment)” value is “effects similar to that of morphine” and the “naloxone-induced cAMP overshoot” value is “effects similar to that of morphine”. Moreover, in the series with mice [9] (icv), the “Antinociceptive A50 Values” was 0.23 nmol and the antinociceptive effect result is listed as “full antinociceptive effects”. Moreover, the “effect of naloxone pretreatment” value in the series on mice [9] was “blocked by naloxone pretreatment”. Moreover, the “toxicity on repeated administration” value in the series with mice [13] was “undue toxicity”.

Regarding `CN1CCC23c4c5ccc(O)c4OC2c2ncc(-c4ccc(Cl)cc4)cc2CC3(OC(=O)Cc2ccccc2)C1C5` (stereo not drawn) [Compound 18e, 5′-(4-Chlorophenyl)-6,7-didehydro-4,5α-epoxy-3-hydroxy-17-methyl-14-(phenylacetoxy)pyrido[2′,3′:6,7]morphinan], the melting point is 194 to 196 °C. For the same compound, on DOR [10], the Ki worked out at 0.97 ± 0.04 nM. In addition, at MOR [11], the inhibitory constant (Ki) came out at 1.43 ± 0.08 nM and the “selectivity ratio MOR/DOR” value stood at 1.5. Moreover, the “selectivity ratio KOR/DOR” value at KOR [12] (setting [14]) was 18. Moreover, the Ki on KOR [12] (read-out: Ki ± SEM KOR) was 17 ± 1 nM. Besides, at DOR [4], the “functional activity profile at DOR” value is reported as “weak to potent partial agonist activity at DOR” and the Emax was 27 ± 3%. Also, on MOR [5], the EC50 came out at 87 nM and the “agonist activity MOR Emax” value came to 122 ± 3%. At KOR [6], this compound returned an EC50 of 109 ± 24 nM and an Emax of 36 ± 2%.

`CN1CCC23c4c5ccc(O)c4OC2c2ncc(-c4ccc(Cl)cc4)cc2CC3(OC(=O)CCc2ccccc2)C1C5` (stereo not drawn) [Compound 18f, 5′-(4-Chlorophenyl)-6,7-didehydro-4,5α-epoxy-3-hydroxy-17-methyl-14-(3-phenylpropionyloxy)pyrido[2′,3′:6,7]morphinan] displayed a melting point of 242 to 244 °C. At DOR [10], this compound came in with a Ki of 0.96 ± 0.05 nM. Also, on MOR [11], the Ki was determined as 0.94 ± 0.05 nM and the “selectivity ratio MOR/DOR” value was 0.98. In addition, on KOR [12], the affinity corresponds to a Ki of 4.41 ± 0.23 nM and the “selectivity ratio KOR/DOR” value worked out at 4.6. At DOR [4], the “functional activity profile at DOR” value is recorded as “weak to potent partial agonist activity at DOR” and the Emax was determined as 59 ± 2%. In addition, on MOR [5], a half-maximal effect (EC50) was put at 48 nM, the “agonist activity MOR Emax” value came out at 105 ± 2% and the Emax was more than 100%. On KOR [6], it took 136 ± 60 nM to reach a half-maximal effect (EC50) and the Emax was 16 ± 2%.

As for `Oc1ccc2c3c1OC1c4ncc(-c5ccc(Cl)cc5)cc4C=C4C(C2)N(CC2CC2)CCC431` (stereo not drawn) [Compound 23, 5′-(4-Chlorophenyl)-17-(cyclopropylmethyl)-3-hydroxy-6,7,8,14-tetradehydro-4,5α-epoxypyrido[2′,3′:6,7]morphinan], the melting point fell in the range of 164 to 166 °C. The same compound had a Ki at DOR [10] of 2.71 ± 0.11 nM. At MOR [11], the inhibitory constant (Ki) worked out at 13 ± 0.4 nM and the “selectivity ratio MOR/DOR” value is given as 4.8. In addition, on KOR [12], the affinity corresponds to a Ki of 5.97 ± 0.19 nM and the “selectivity ratio KOR/DOR” value is 2.2. Further, the “agonist activity DOR EC50” value at DOR [4] is given as “no stim”. In addition, the “functional activity profile at MOR” value at MOR [5] is given as “antagonists at MOR”. The “agonist activity MOR EC50” value at MOR [5] (stimulation of [35S]GTP-γ-S binding, no stim = no stimulation) is “no stim”. For the same compound, the “agonist activity KOR EC50” value at KOR [6] is recorded as “no stim”.

Values taken from patent publication US9163030B2 (priority 2012, dated 2015).
